# Literature values in patent publication US20200306172A1, “DEPIGMENTING DERMATOLOGICAL AND COSMETIC COMPOSITIONS” (NUNII LABORATOIRE, priority 2017, published 2020).
# Where two headings read alike, the source gives them in different places.
# Tests used:
# [1] = pH 4 to pH 6
# [2] = powder raw material
SMILES,stability [1],solubility [2],depigmenting activity (kojic acid at 1%),depigmenting activity (kojic acid at 4% dose)
CCOC1=C(O)C(=O)O[C@@H]1[C@@H](O)CO [3-O-ethyl-L-ascorbic acid],more stable than ascorbic acid and its other derivatives,soluble in water and alcohol,,
NC(=O)c1cccnc1 [Niacinamide],,"readily soluble in water, alcohol or glycerol",,
Oc1ccc(/C=C/c2cc(O)cc(O)c2)cc1 [Trans-resveratrol],,soluble in polyethylene glycols and propylene glycols,,
O=c1cc(CO)occ1O [kojic acid],,,no depigmenting activity,shows a depigmenting effect
OCC1O[C@H](Oc2ccc(O)cc2)C(O)C(O)[C@@H]1O (stereo partly drawn) [α-arbutin],,readily soluble in water,,
